Values quoted from earlier work, collected in US20020131987A1, “METHOD FOR ENHANCING STABLE CELLULAR CREATINE CONCENTRATION” (priority 1997, published 2002).

What was measured:
[1] = not given; remark: listed apart in the source
[2] = not given; remark: listed apart in the source
[3] = not given; remark: listed apart in the source
[4] = not given; remark: listed apart in the source

Compound	reaction to litmus	formation of creatinine in aqueous solution ([1]; dissolved in an aqueous solution)	volume of alcohol in which one gram dissolves ([2]; alcohol)	volume of water in which one gram dissolves ([2]; water)	formation of creatinine in acid solution ([1]; acid solution)	time for conversion of creatine to creatinine ([1]; acidic aqueous solution)	decomposition in the alimentary tract ([3]; after oral administration, no appreciable increase in urinary urea or ammonia)	absorption from the alimentary tract ([3]; oral administration)	creatine lost from the cell ([4]; 70 kg male)	loss of creatine from skeletal muscle ([4]; human skeletal muscle)
CN(CC(=O)O)C(=N)N.O [creatine monohydrate]	neutral	creatinine is formed	about 9 liters	75 mL						
CN(CC(=O)O)C(=N)N [creatine]					complete	a number of hours	not decomposed	completely absorbed	approximately 2 grams per day	about 3 % per day
